Row | Compound | solubility (mole fraction) (in n-hexane, 293.15 K) | solubility (mole fraction) (in n-hexane, 298.15 K) | solubility (mole fraction) (in n-hexane, 303.15 K) | solubility (mole fraction) (in n-hexane, 308.15 K) | solubility (mole fraction) (in n-hexane, 313.15 K) | solubility (mole fraction) (in n-octanol, 293.15 K) | solubility (mole fraction) (in n-octanol, 298.15 K) | solubility (mole fraction) (in n-octanol, 303.15 K) | solubility (mole fraction) (in n-octanol, 308.15 K) | solubility (mole fraction) (in n-octanol, 313.15 K)
1 | NC(=S)c1ccncc1 | 2.97e-06 | 3.73e-06 | 4.47e-06 | 5.47e-06 | 6.67e-06 | 0.00347 | 0.00431 | 0.00516 | 0.0062 | 0.00744
2 | CCc1cc(C(N)=S)ccn1 | 1.84e-05 | 2.22e-05 | 2.73e-05 | 3.2e-05 | 3.88e-05 | 0.00674 | 0.00868 | 0.0108 | 0.0133 | 0.016
3 | NC(=S)c1ccccn1 | 0.000199 | 0.000248 | 0.000325 | 0.000404 | 0.000518 | 0.00952 | 0.012 | 0.0147 | 0.0183 | 0.0222

— BigSolDB 2.1
